Data reported in patent publication EP0518769B1, “Ethanolaminebenzoate derivative, process for their preparation and pharmaceutical compositions containing them” (ADIR ET COMPAGNIE, priority 1991, dated 1992).

Columns and labels:
[1] = system: rats agés de 12 semaines, insulinorésistance induite par l'amyline; assay: Insulin resistance induced by intraportal amylin perfusion, with IVGTT; assay type: in vivo, rat; conditions: Perfusion amyline + 0,75µg/kg/min pendant 60 mn
Text: A J₇ avant le début de l'expérimentation, les rats sont anesthésiés à la kétamine (IMALGENE 1000 - Rhône MERIEUX), et un cathéter en silastic (602-135, médical grade, DOW CORNING MIDLAND) est implanté dans la veine porte hépatique [cf. Strubbe J.H., Wolsink J.G., Schutte A.M., Balkan B., and Prins A.J.A. : Hepatic-portal and cardiac infusion of CKK-8 and glucagon induce different effects on feeding. Physiology and Behavior 46,643-646 (1989)] pour la perfusion du soluté physiologique (jour contrôle) puis du produit à tester. Ils sont alors placés individuellement dans des cages en plexiglas. • Après récupération, soit environ 10 jours plus tard, un second cathéter en silastic (602-155, médical grad, DOW CORNING MIDLAND) est introduit jusque dans l'oreillette droite par la veine jugulaire droite [cf. Steffens A.B : A Method for frequent sampling of blood and continuous infusion of fluids in the rat without disturbing the animal. Physiology and behavior 4, 833-836 (1969)]. Lors des test, les différents prélèvements sanguins et l'injection intra-cardiaque du bolus glucosé seront effectués à l'aide de ce cathéter. Pendant les deux interventions chirurgicales, les cathéters sont glissés sous la peau et extériorisés au-dessus de la tête au moyen d'une aiguille limée recourbée et bouchée par un capuchon de polyéthylène (PE) fermé à la bougie. • 0,4 ml d'une solution d'héparine à 500 U/ml (ROUSSEL UCLAF) suivie de 0,1 ml de PVP (Solution de Polyvinylpyrrolidone à 30 % - PM 25000 - MERCK) sont introduits dans les cathéters avant la fermeture par le capuchon de polyéthylène. La viscosité du PVP permet d'éviter un reflux du sang dans le cathéter. • La veille de chaque expérience, les rats sont soumis à un jeûne nocturne de 18 heures. Le jour de l'expérience, ces rats sont pesés et le bon fonctionnement des cathéters vérifié. • Afin d'éliminer le stress du branchement des cathéters sur les aiguilles extériorisées sur le dessus de la tête, 20 minutes de repos sont nécessaires avant de commencer l'expérience. • Les perfusions intraportales, réalisées à l'aide d'un cathéter en polyéthylène N° 3 durent 60 minutes; elles ont un débit constant de 2 ml/heure soit envirion 0,033 ml/minute, assuré par un perfuseur BRAUN. […]

[2] = system: Rats SDCD mâles de 52 semaines; assay: Chronic per os treatment (14 days, twice daily) in the male SDCD rat aged 52 weeks; assay type: in vivo; conditions: 0,5 mg/kg×2 per os, vs Contrôle 1,1 ± 0,14 g/l
Text: Les essais sont réalisés sur des rats qui présentent des anomalies pondérales associées à un hyperinsulisme et une hyperglycéridémie.
Il est recherché : • d'une part l'effet d'un traitement prolongé du produit de l'exemple 1 et de substances de référence sur ces anomalies, et • d'autre part, la consommation du glucose par le tissu adipeux est mesuré à l'état basal et en présence d'insuline (10⁻⁹ M).
On utilise des rats identiques à ceux de l'étude du traitement aigu, (cf. ci-dessus le paragraphe A- 2.1), à savoir des rats SDCD mâles agés de 52 semaines.
9 jours avant le début de l'expérimentation (J₋₉), sont constitués des lots de rats par randomisation stratifiée sur le poids.
5 jours avant le début de l'expérimentation (J₋₅), les rats sont conditionnés par administration d'une solution de gomme.
Le premier jour de l'expérimentation (J₁), les produits à tester sont administrés à différentes doses aux rats 2 fois par jour. Plus précisémment, les produits sont administrés en suspension dans la gomme entre 9 et 10 heures et 16-17 heures pendant 14 jours. Une pesée quotidienne des animaux traités est effectuée.
Le 15ème jour, les rats (à jeun depuis 18 heures) sont sacrifiés par décapitation. Le sang est recueilli directement dans une cupule. Un aliquote (50 µl) est transféré dans 500 µl d'acétate d'uranyl pour dosage de la glycémie. […]

[3] = system: Rats SDCD mâles 52 semaines; assay: Acute treatment by portal perfusion in the conscious rat, with IVGTT; assay type: in vivo; conditions: 0,25 µg/kg/min×60 min intraportal perfusion; vs Contrôle 57,4 ± 13,7 µU/ml
Text: La technique de perfusion portale chez le rat vigile permet d'étudier l'effet de substances pharmacologiques sur les modifications de la tolérance au glucose adminstré par voie intraveineuse.
L'injection d'agents directement dans la circulation portale permet d'éviter les effets du transit gastrique, d'absorption et de libération d'hormone par la paroi intestinale et ainsi d'explorer : • soit un effet direct sur le tissu hépatique, • soit l'existence d'un relai foie-système nerveux central-tissu périphérique (foie, muscle ou cible endocrine).
Dans cette expérimentation, on a utilisé des rats mâles adultes SPRAGUE DAWLEY par lots de 5 à 12 rats.
Les rats utilisés, agés de 52 semaines, présentent • une diminution de la tolérance au glucose, • une augmentation de l'insulinémie basale, et • une augmentation des lipides plasmatiques.
La stabulation (de 9 à 52 semaines) de ces rats a été réalisée dans une pièce à température régulée de 21 à 22 °C et soumise à un cycle fixe de lumière (de 7 h 30 à 19 h 30) et d'obscurité (de 19 h 30 à 7 h 30). Leur alimentation a consisté en un régime d'entretien (UAR A 03); eau et nourriture ont été fournies "ad libitum", à l'exception du jeûne nocturne précédant les tests où la nourriture était retirée. […]

LDL [4] = assay: LDL oxidation in vitro by copper; assay type: biochemical; conditions: à 10⁻⁴ M
Text: (§1) Une étude comparative entre le produit de l'exemple 1 et les substances de référence (Benfluorex, Diméthylbiguanide) sur l'oxydation des LDL in vitro a été réalisée.

LDL [5] = assay: LDL oxidation in vitro by monocytes; assay type: cell-based; conditions: à 10⁻⁴ M
Text: as §1

For COC(CNCCOC(=O)c1ccc(CCNC(=O)CC2c3ccccc3-c3ccccc32)cc1)c1cccc(C(F)(F)F)c1 (single isomer, unassigned) [Exemple 1, Isomère lévogyre du chlorhydratede para-[2-(α-fluorén-9-ylacétylamino) éthyl] benzoatede 2-[(β-méthoxy β-métatrifluorométhylphényl) éthylamino] éthyle], the “Tolérance au glucose K.10^-2” value ([1]; Controle 3,54±0,24, amyline alone 1,71±0,27) was 3,79±0,38, the Insulinémie basale ([1]; Controle 5,93±0,48, amyline alone 6,87±0,77) was 8,26±1,15 µU/ml and the “Insulinémie 24 min après glucose” value ([1]; Controle 8,86±0,77, amyline alone 15,28±1,90) was 15±1,86 µU/ml. The Insulinémie au pic ([1]; Controle 24,80±1,86, amyline alone 23,54±1,7) was 23,60±2,17 µU/ml, the Cholestérol variation % [2] was 0% and the “Insulinémie au pic Variation %” value [3] was 0%.
CC(Cc1cccc(C(F)(F)F)c1)NCCOC(=O)c1ccccc1 (stereo not drawn) [Benfluorex, 1-(3-trifluorométhylphényl)-2-(β-benzoyloxyéthyl)aminopropane] was tested, and the “Oxydation des LDL in vitro par le cuivre” value (LDL [4]) was “Inactif à 10⁻⁴ M” and the “Oxydation des LDL in vitro par les monocytes” value (LDL [5]) was “Inactif à 10⁻⁴ M”.
